Key:
Experiment in all cases: scanMAX Kinase assay panel
Assay type in all cases: binding
Settings in all cases: read-out: % control
ASK2 = ASK2 (Homo sapiens (Human), UniProt O95382)
Procedure: (§1) DiscoverX Co. was asked to measure the enzyme (kinase) selectivity, and the experiment was performed using scanMAX™ Kinase assay panel.
(§2) (Example Compound−Positive Control)/(Negative Control−Positive Control)×100 [Equation 1]
(§3) Herein, the positive control indicates the compound showing the % control of 0%, and the negative control indicates DMSO showing the % control of 100%.

BTK = BTK (Homo sapiens (Human), UniProt Q06187)
Procedure: as §1, §2, §3

CDK3 = CDK3 (Homo sapiens (Human), UniProt Q00526)
Procedure: as §1, §2, §3

CSF1R-autoinhibited = CSF1R-autoinhibited (Homo sapiens (Human), UniProt P07333)
Procedure: as §1, §2, §3

CSNK2A2 = CSNK2A2 (Homo sapiens (Human), UniProt P19784)
Procedure: as §1, §2, §3

CTK = CTK (Homo sapiens (Human), UniProt P42679)
Procedure: as §1, §2, §3

DCAMKL2 = DCAMKL2 (Homo sapiens (Human), UniProt Q8N568)
Procedure: as §1, §2, §3

EGFR(G719S) = EGFR(G719S) (Homo sapiens (Human), UniProt P00533, G719S)
Procedure: as §1, §2, §3

[1] = target: EGFR(L747-E749del, A750P) (Homo sapiens (Human), UniProt P00533, A750P/DEL747-749)
Procedure: as §1, §2, §3

EPHB4 = EPHB4 (Homo sapiens (Human), UniProt P54760)
Procedure: as §1, §2, §3

FGR = FGR (Homo sapiens (Human), UniProt P09769)
Procedure: as §1, §2, §3

FLT4 = FLT4 (Homo sapiens (Human), UniProt P35916)
Procedure: as §1, §2, §3

GRK3 = GRK3 (Homo sapiens (Human), UniProt P35626)
Procedure: as §1, §2, §3

GRK4 = GRK4 (Homo sapiens (Human), UniProt P32298)
Procedure: as §1, §2, §3

HIPK1 = HIPK1 (Homo sapiens (Human), UniProt Q86Z02)
Procedure: as §1, §2, §3

HUNK = HUNK (Homo sapiens (Human), UniProt P57058)
Procedure: as §1, §2, §3

IKK-alpha = IKK-alpha (Homo sapiens (Human), UniProt O15111)
Procedure: as §1, §2, §3

INSRR = INSRR (Homo sapiens (Human), UniProt P14616)
Procedure: as §1, §2, §3

KIT(V559D) = KIT(V559D) (Homo sapiens (Human), UniProt P10721, V559D)
Procedure: as §1, §2, §3

LIMK1 = LIMK1 (Homo sapiens (Human), UniProt P53667)
Procedure: as §1, §2, §3

MAP4K4 = MAP4K4 (Homo sapiens (Human), UniProt O95819)
Procedure: as §1, §2, §3

MARK4 = MARK4 (Homo sapiens (Human), UniProt Q96L34)
Procedure: as §1, §2, §3

MEK2 = MEK2 (Homo sapiens (Human), UniProt P36507)
Procedure: as §1, §2, §3

PAK3 = PAK3 (Homo sapiens (Human), UniProt O75914)
Procedure: as §1, §2, §3

PIK3CA = PIK3CA (Homo sapiens (Human), UniProt P42336)
Procedure: as §1, §2, §3

PIK3CA(M1043I) = PIK3CA(M1043I) (Homo sapiens (Human), UniProt P42336, M1043I)
Procedure: as §1, §2, §3

PIK4CB = PIK4CB (Homo sapiens (Human), UniProt Q9UBF8)
Procedure: as §1, §2, §3

PIP5K1A = PIP5K1A (Homo sapiens (Human), UniProt Q99755)
Procedure: as §1, §2, §3

RIOK2 = RIOK2 (Homo sapiens (Human), UniProt Q9BVS4)
Procedure: as §1, §2, §3

[2] = target: RPS6KA4(Kin.Dom.2-C-terminal) (Homo sapiens (Human), UniProt O75676)
Procedure: as §1, §2, §3

[3] = target: RSK3(Kin.Dom.2-C-terminal) (Homo sapiens (Human), UniProt Q15349)
Procedure: as §1, §2, §3

SGK2 = SGK2 (Homo sapiens (Human), UniProt Q9HBY8)
Procedure: as §1, §2, §3

SGK3 = SGK3 (Homo sapiens (Human), UniProt Q96BR1)
Procedure: as §1, §2, §3

SIK2 = SIK2 (Homo sapiens (Human), UniProt Q9H0K1)
Procedure: as §1, §2, §3

STK16 = STK16 (Homo sapiens (Human), UniProt O75716)
Procedure: as §1, §2, §3

TBK1 = TBK1 (Homo sapiens (Human), UniProt Q9UHD2)
Procedure: as §1, §2, §3

TLK2 = TLK2 (Homo sapiens (Human), UniProt Q86UE8)
Procedure: as §1, §2, §3

ULK2 = ULK2 (Homo sapiens (Human), UniProt Q8IYT8)
Procedure: as §1, §2, §3

WEE1 = WEE1 (Homo sapiens (Human), UniProt P30291)
Procedure: as §1, §2, §3

MARK4, sequence (Q96L34 whole entry): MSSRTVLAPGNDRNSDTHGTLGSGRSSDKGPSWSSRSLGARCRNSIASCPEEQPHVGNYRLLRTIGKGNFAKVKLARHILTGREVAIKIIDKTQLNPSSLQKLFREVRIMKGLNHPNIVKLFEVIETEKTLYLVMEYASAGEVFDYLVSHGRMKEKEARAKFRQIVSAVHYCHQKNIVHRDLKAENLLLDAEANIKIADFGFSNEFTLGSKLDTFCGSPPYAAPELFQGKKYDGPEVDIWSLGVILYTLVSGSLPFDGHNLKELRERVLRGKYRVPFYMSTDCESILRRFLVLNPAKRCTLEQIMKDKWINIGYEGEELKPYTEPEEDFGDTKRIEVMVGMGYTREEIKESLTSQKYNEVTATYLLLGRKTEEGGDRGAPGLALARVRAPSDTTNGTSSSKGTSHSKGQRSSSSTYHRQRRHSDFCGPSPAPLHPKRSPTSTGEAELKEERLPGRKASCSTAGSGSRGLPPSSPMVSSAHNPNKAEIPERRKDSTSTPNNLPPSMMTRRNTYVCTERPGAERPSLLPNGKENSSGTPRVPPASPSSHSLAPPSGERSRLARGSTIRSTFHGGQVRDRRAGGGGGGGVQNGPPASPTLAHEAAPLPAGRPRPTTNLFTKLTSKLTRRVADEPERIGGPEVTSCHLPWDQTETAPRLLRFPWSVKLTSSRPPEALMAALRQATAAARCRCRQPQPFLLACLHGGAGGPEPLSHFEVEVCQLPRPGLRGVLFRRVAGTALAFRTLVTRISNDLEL
LIMK1, sequence (P53667 whole entry): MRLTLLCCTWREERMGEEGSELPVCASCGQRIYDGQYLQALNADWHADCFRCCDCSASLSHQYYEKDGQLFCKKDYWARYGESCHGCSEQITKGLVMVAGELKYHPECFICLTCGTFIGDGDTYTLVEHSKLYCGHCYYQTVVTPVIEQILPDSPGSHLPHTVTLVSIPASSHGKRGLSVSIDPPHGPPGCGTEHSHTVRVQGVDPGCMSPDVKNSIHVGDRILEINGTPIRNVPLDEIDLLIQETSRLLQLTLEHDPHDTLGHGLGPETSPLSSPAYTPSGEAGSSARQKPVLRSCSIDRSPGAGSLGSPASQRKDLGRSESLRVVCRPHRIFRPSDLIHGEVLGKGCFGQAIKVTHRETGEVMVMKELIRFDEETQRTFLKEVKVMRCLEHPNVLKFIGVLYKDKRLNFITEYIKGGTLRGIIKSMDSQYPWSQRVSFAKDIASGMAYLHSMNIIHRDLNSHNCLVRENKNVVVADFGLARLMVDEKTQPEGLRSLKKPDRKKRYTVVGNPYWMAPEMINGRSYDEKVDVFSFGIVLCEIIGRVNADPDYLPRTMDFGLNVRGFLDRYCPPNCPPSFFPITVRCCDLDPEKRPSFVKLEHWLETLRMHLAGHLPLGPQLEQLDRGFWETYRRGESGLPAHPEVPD
FGR, sequence (P09769 whole entry): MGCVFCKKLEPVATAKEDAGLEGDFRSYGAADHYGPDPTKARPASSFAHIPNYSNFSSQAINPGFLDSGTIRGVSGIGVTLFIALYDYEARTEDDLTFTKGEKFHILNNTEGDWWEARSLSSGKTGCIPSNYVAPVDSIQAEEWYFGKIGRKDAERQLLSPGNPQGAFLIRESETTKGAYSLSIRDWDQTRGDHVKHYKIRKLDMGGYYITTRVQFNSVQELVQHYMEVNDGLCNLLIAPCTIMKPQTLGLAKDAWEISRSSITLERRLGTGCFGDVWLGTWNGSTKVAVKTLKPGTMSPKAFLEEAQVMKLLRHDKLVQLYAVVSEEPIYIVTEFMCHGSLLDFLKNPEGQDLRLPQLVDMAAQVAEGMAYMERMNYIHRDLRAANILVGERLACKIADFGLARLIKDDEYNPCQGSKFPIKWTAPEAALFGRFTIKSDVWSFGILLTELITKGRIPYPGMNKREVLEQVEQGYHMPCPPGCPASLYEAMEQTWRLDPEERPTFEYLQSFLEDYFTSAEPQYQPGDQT
PIP5K1A, sequence (Q99755 whole entry): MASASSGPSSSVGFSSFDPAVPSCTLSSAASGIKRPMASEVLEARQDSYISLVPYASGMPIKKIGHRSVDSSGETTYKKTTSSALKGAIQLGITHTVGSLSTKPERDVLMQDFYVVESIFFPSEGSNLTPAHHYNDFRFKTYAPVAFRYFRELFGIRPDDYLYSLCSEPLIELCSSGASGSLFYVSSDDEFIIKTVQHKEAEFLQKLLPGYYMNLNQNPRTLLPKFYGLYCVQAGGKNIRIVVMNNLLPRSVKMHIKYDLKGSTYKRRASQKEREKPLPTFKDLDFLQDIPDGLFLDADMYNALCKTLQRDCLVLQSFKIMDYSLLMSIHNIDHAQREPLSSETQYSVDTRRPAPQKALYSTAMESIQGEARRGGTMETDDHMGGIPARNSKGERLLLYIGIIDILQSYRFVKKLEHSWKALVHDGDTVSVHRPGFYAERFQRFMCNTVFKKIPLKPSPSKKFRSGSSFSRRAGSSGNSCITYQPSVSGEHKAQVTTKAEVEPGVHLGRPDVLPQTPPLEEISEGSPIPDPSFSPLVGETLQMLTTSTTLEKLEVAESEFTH
EGFR(L747-E749del, A750P), sequence (P00533 other isoform, or with tags, fused parts or gaps A750P/del L747-E749): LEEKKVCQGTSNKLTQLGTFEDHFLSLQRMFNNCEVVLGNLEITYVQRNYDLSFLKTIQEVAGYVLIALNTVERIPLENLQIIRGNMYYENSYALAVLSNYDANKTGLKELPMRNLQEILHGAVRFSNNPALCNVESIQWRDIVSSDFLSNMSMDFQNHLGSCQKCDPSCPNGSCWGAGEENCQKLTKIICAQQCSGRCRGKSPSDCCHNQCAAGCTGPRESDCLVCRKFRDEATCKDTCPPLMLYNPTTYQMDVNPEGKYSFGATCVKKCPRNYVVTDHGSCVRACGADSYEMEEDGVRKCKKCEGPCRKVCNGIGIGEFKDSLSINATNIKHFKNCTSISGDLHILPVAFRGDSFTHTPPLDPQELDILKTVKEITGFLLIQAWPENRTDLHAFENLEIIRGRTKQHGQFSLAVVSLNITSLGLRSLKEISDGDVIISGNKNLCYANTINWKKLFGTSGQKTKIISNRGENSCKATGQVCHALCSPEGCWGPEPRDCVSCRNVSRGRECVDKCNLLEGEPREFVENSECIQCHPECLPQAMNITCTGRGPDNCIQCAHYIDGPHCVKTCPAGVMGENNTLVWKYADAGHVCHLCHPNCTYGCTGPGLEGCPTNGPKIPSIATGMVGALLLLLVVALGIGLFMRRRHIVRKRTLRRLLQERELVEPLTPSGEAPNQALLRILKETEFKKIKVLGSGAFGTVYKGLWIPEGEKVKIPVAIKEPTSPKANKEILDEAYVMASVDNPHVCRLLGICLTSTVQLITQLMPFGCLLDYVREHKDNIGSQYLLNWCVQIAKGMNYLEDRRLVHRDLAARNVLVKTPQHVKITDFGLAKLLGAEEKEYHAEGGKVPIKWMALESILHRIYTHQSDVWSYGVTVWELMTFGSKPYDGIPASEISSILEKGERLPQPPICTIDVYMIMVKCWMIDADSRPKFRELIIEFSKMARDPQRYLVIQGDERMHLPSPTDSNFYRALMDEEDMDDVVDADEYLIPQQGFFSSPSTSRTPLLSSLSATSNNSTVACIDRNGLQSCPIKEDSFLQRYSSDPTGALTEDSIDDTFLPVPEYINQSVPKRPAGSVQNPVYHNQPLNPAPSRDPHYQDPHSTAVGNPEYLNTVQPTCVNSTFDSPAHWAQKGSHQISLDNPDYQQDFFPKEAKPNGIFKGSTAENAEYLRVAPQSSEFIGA
BTK, sequence (Q06187 whole entry): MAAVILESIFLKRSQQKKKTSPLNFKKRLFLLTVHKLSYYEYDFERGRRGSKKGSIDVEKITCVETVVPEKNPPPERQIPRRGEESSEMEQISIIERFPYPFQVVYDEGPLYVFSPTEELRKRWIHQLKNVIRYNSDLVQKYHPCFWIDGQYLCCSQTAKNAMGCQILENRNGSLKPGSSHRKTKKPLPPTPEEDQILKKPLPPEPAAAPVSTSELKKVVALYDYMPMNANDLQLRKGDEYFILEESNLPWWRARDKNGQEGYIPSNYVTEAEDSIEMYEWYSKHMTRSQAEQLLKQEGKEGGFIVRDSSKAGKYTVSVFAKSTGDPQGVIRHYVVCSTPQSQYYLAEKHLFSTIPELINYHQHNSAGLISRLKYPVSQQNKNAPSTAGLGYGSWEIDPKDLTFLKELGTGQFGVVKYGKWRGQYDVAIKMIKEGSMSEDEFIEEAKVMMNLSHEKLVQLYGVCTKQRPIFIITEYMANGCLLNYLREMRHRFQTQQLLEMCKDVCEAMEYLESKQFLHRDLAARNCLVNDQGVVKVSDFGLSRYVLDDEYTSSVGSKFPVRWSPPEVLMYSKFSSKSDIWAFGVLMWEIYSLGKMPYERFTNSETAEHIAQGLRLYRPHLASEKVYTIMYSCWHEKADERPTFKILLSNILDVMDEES
PAK3, sequence (O75914 whole entry): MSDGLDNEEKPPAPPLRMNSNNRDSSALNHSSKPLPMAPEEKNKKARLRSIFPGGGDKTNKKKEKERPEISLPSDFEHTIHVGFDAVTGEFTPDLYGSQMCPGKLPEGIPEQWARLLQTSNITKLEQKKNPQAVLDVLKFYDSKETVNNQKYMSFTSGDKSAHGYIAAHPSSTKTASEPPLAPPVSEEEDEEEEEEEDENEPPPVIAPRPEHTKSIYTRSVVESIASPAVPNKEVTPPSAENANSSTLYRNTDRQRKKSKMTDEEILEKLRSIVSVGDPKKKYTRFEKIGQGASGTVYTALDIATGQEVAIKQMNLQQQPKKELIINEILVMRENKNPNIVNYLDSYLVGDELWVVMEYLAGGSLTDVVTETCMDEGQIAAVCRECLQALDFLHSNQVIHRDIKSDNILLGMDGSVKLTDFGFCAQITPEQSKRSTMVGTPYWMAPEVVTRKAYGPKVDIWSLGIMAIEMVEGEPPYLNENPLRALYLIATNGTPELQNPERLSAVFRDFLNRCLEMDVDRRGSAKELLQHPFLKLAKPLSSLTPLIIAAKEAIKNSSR

SMILES	remaining binding at 1 µM (ASK2) [%]	remaining binding at 1 µM (BTK) [%]	remaining binding at 1 µM (CDK3) [%]	remaining binding at 1 µM (CSF1R-autoinhibited) [%]	remaining binding at 1 µM (CSNK2A2) [%]	remaining binding at 1 µM (CTK) [%]	remaining binding at 1 µM (DCAMKL2) [%]	remaining binding at 1 µM (EGFR(G719S)) [%]	remaining binding at 1 µM [1] [%]	remaining binding at 1 µM (EPHB4) [%]	remaining binding at 1 µM (FGR) [%]	remaining binding at 1 µM (FLT4) [%]	remaining binding at 1 µM (GRK3) [%]	remaining binding at 1 µM (GRK4) [%]	remaining binding at 1 µM (HIPK1) [%]	remaining binding at 1 µM (HUNK) [%]	remaining binding at 1 µM (IKK-alpha) [%]	remaining binding at 1 µM (INSRR) [%]	remaining binding at 1 µM (KIT(V559D)) [%]	remaining binding at 1 µM (LIMK1) [%]	further results
CCNc1cc(Nc2ccc(C(=O)N3CCC(N4CCOCC4)CC3)cc2OC)nc2[nH]cc(C(F)(F)F)c12 [Example 57, (4-((4-(ethylamino)-3-(trifluoromethyl)-1H-pyrrolo[2,3-b]pyridin-6-yl)amino)-3-methoxyphenyl) (4-morpholinopiperidin-1-yl)methanone]	92	100	94	83	80	84	79	92	94	88	78	99	100	100	54	51	100	60	77	99	remaining binding at 1 µM (MAP4K4): 100%; remaining binding at 1 µM (MARK4): 76%; remaining binding at 1 µM (MEK2): 100%; remaining binding at 1 µM (PAK3): 83%; remaining binding at 1 µM (PIK3CA): 87%; remaining binding at 1 µM (PIK3CA(M1043I)): 99%; remaining binding at 1 µM (PIK4CB): 100%; remaining binding at 1 µM (PIP5K1A): 88%; remaining binding at 1 µM (RIOK2): 100%; remaining binding at 1 µM [2]: 100%; remaining binding at 1 µM [3]: 82%; remaining binding at 1 µM (SGK2): 100%; remaining binding at 1 µM (SGK3): 100%; remaining binding at 1 µM (SIK2): 95%; remaining binding at 1 µM (STK16): 64%; remaining binding at 1 µM (TBK1): 85%; remaining binding at 1 µM (TLK2): 88%; remaining binding at 1 µM (ULK2): 93%; remaining binding at 1 µM (WEE1): 100%
CCNc1cc(Nc2ccc(C(=O)N3CCC(N4CCOCC4)CC3)cc2OC)nc2[nH]cc(C#N)c12 [Example 18, 4-(ethylamino)-6-((2-methoxy-4-(4-morpholinopiperidine-1-carbonyl)phenyl)amino)-1H-pyrrolo[2,3-b]pyridine-3-carbonitrile]	82	99	97	51	97	100	77	80	100	100	100	100	58	100	63	57	44	24	33	92	remaining binding at 1 µM (MAP4K4): 100%; remaining binding at 1 µM (MARK4): 80%; remaining binding at 1 µM (MEK2): 26%; remaining binding at 1 µM (PAK3): 93%; remaining binding at 1 µM (PIK3CA): 100%; remaining binding at 1 µM (PIK3CA(M1043I)): 100%; remaining binding at 1 µM (PIK4CB): 80%; remaining binding at 1 µM (PIP5K1A): 100%; remaining binding at 1 µM (RIOK2): 63%; remaining binding at 1 µM [2]: 0.3%; remaining binding at 1 µM [3]: 12%; remaining binding at 1 µM (SGK2): 64%; remaining binding at 1 µM (SGK3): 79%; remaining binding at 1 µM (SIK2): 87%; remaining binding at 1 µM (STK16): 60%; remaining binding at 1 µM (TBK1): 76%; remaining binding at 1 µM (TLK2): 98%; remaining binding at 1 µM (ULK2): 67%; remaining binding at 1 µM (WEE1): 100%

— patent publication US11117892B2, “Pyrrolo-pyridine derivative compound, method for preparing same, and pharmaceutical composition containing same as active ingredient for prevention or treatment of protein kinase-related diseases” (DAEGU-GYEONGBUK MEDICAL INNOVATION FOUNDATION, priority 2017, dated 2021)
